Source: patent US20250288549A1, “SYNTHETIC PROCESS FOR PRODUCTION OF LIPOXIN B4 AND ANALOGUES THEREOF” (UNIVERSITY HEALTH NETWORK, priority 2022, published 2025)
“Also recorded” adds a separate entry of the source.

What was measured:
[1] = Storage and handling stability of LXB4; type: physicochemical
Method: Instability of LXB4 presented a substantial obstacle its synthesis and purification. […] Telescoping the final transformations from 27 to 2, preventing light exposure, and storing all crude intermediates in a methanol solution were required to obtain LXB4 of sufficient purity. LXB4 could be stored as a solution in methanol or ethanol at −20° C. for several weeks or at −80° C. for one to three months before substantial degradation was observed.
Dimethylethoxysilane (560 uL, 4.03 mmol, 8.0 equiv.) was added in one portion, followed by dropwise addition of Karstedt's catalyst (platinum(0)-1,3-divinyl-1,1,3,3,-tetramethyldisoloxane complex, 2% Pt) (115 μL, 0.010 mmol, 2 mol %). The round bottom flask was covered with foil to prevent UV exposure and the solution was stirred overnight at room temperature. […] The crude reaction mixture was filtered through a silica plug, which was washed with Et2O, and the collected filtrate was dried under vacuum to afford a yellow-brown oil. This oil was redissolved in anhydrous THF (4.4 mL) under argon. The solution was again wrapped in foil, and a solution of TBAF in THF (1.0 M, 4.0 mL, 8.0 equiv.) was added dropwise. The reaction was stirred at room temperature for 20 minutes. […] Another […] was added dropwise. […] The reaction was quenched by the addition of phosphate buffer (pH 7) and water and extracted with diethyl ether. The combined organic phase was dried over Na2SO4 and concentrated in vacuo. The crude oil was immediately redissolved in THF/H2O (3:1, 2.5 mL) and treated with LiOH (12.1 mg, 0.50 mmol, 1.0 equiv.) mmol. The resulting solution was stirred at room temperature in a round-bottom flask wrapped in aluminium foil until TLC indicated complete conversion. The reaction mixture was flash filtered through celite to remove any residual LiOH solid and washed with THF. The remaining solvent was removed in vacuo to afford a sticky yellow residue, which was immediately redissolved in MeOH. […] This material was purified by reverse phase HPLC (XBridge BEH OBD Prep column, 130A, 5 μM, 30 mm×150 mm) using a mobile phase of H2O+0.05% NH4OH (A) and acetonitrile+0.05% NH4OH (B) and a gradient elution of 97:3 A:B to 67:33 A:B. After lyophilization, we obtained 98.7 mg of LXB4 for a yield of 56% over three steps. LXB4 should be stored on dry ice until injected into the HPLC. In a solution in methanol at room temperature, formation of impurities which are extremely difficult to separate by HPLC occurred in 1-2 hours.

HT22 neuronal cells = test: HT22 glutamate injury model, cell viability by XTT assay; type: cell-based; settings: for neuroprotection in glutamate injury model: 1 μM LXB4, glutamate challenge
Text: In order to confirm the bioactivity of the synthesized material, its neuroprotective effects were confirmed in a neuronal injury model. Recent clinical failures of a variety of neuroprotection trials have intensified interest in new treatment strategies. Evidence is accumulating that lipoxins and other lipid mediators can have an important impact on neuroinflammation and neuronal survival.[13,38] […] Yet the lack of efficient syntheses of LXB4 coupled with the expensive cost from commercial sources (USD$806/100 μg, Cayman Chemical)[36] have made this new mechanism of action challenging to modify and study. In this regard the presently described synthetic route towards LXB4, and analogues thereof, provide a benefit for improving production and/or reducing cost of production of LXB4 and analogues thereof. Therefore, the neuroprotective activity of newly synthesized LXB4 was compared it against the commercial source to confirm its activity.[36] For this assay, HT22 neuronal cells were pre-treated with LXB4 from both sources (commercial vs. in-house), followed by a glutamate challenge to induce excitotoxic cell death.[14] Cell viability was then measured using an XTT assay.
HT22 cells (SCC129, EMD Millipore) were grown on 100-mm tissue culture dishes (83.3902.300, Sarstedt) and maintained in high glucose DMEM (Sigma, D5796-500ML) supplemented with 10% fetal bovine serum (080-150, Wisent) and 1% Penstrep (15140122, Gibco) at 37° C. in a 5% CO2 atmosphere incubator (67/340,1045, CellXpert C170, Eppendorf). Cells used for experiments were maintained at a <80% confluency and <25 passages, and were dissociated using TrypIE (12604013, Gibco).
HT22 cells were seeded at 4×10^3 cells in 100 μL of the high glucose DMEM+10% fetal bovine serum+1% Penstrep media on replicate wells of 96-well plates (83.3924.300, Sarstedt) for 20 hours at 37° C. in a 5% CO2 atmosphere humidified incubator. Cells were then pretreated with 5 μL of the indicated LXB4 concentration, or vehicle, one hour prior to addition of 3 mM glutamate stressor. Cells were exposed for 13 hours, then evaluated for cell viability using an XTT assay, according to the manufacturer's instructions (11465015001, Roche). The resulting absorbance values were read in a BMG CLARIOstar microplate reader under 490 nm excitation following 2 hours of XTT incubation and analyzed using Graphpad Prism 9 for ANOVA analyses and curve fitting.

[2] = tested on: retinal ganglion cell death; settings: acute and chronic models of retinal ganglion cell death, glaucoma; cited from earlier work
neuronal cell types = settings: cited from earlier work

| Compound | stability to air and light [1] | stability in HPLC buffer ([1]; HPLC buffer) | stability stored as a solid ([1]; crude or purified material, room temperature) | stability stored as a solid ([1]; low temperature (−20° C.)) | time to formation of impurities ([1]; solution in methanol at room temperature) | storage time before substantial degradation ([1]; solution in methanol or ethanol at −20° C.) | storage time before substantial degradation ([1]; solution in methanol or ethanol at −80° C.) | neuroprotection in glutamate injury model (HT22 neuronal cells; n=8, p<0.05) | neuroprotection in glutamate injury model (HT22 neuronal cells; n=8, p<0.05, listed as synthesized LXB4) | EC50 (HT22 neuronal cells; Mus musculus, HT-22, glutamate injury, dose response curve, n=8) | efficacy in vivo [2] | potency relative to LXA4 (neuronal cell types; established neuronal injury model, also primary cortical, hippocampal and retinal ganglion cells) | potency and efficacy in direct neuroprotection compared with LXA4 (neuronal cell types; variety of neuronal cell types, acute and chronic injury models of glaucoma) |
| --- | --- | --- | --- | --- | --- | --- | --- | --- | --- | --- | --- | --- | --- |
| CCCCC[C@H](O)[C@H](O)/C=C/C=C/C=C\C=C\[C@@H](O)CCCC(=O)O [LXB4, (5S,6E,8Z,10E,12E,14R,15S)-5,14,15-trihydroxyicosa-6,8,10,12-tetraenoic acid] | highly unstable | stable in HPLC buffer for several hours | rapid degradation | rapid degradation | 1 to 2 h | several weeks | one to three | significantly neuroprotective | significant protection | 293 nM | efficacy in vivo | 20 fold | significantly more potent and efficacious than LXA4 |
| CCCCC[C@H](O)[C@H](O)/C=C/C=C/C=C\C=C\[C@@H](O)CCCC(=O)O [commercial LXB4, reference compound] | – | – | – | – | – | – | – | significantly neuroprotective; also recorded: significant protection | – | – | – | – | – |
